From patent US12673921B2, “Substituted fluorine-containing imidazole salt compound, preparation method therefor, pharmaceutical composition thereof and use thereof” (XIAMEN VIVOHEALTHS TECHNOLOGY CO., LTD., priority 2019, dated 2026) come the findings set out here.

Data set [1] is described as follows: Liver microsome stability test, human liver microsome. Format: in vitro ADME. Conditions: microsomes, 0.5 mg protein/mL microsome, 1 μM compound, 37° C., NADPH, read-out: HLM 0.5 T1/2 (min), half life in human liver microsome. As for the experimental part: The experimental steps were as follows: • 1. Preparation of working solution • 1.1 Intermediate solution: 5 μL of a 10 mM stock solution of sample or control was taken out, and diluted with 495 μl of methanol (Conc.: 100 μM, 99% MeOH). • 1.2 Working solution: 50 μL of the intermediate solution was taken out, and diluted with 450 μL of a 100 mM potassium phosphate buffer (Conc.: 10 μM, 9.9% MeOH). • 2. Preparation of NADPH cofactor
An appropriate amount of NADPH powder was weighed, and dissolved with a MgCl2 (10 mM) solution. • 3. Liver microsome • 3.1 Liver microsome information
• 3.2 Preparation: a microsome working solution with an appropriate concentration was prepared by using a 100 mM potassium phosphate buffer. • 4. Stop solution
Glacial acetonitrile, comprising 100 ng/ml Tolbutamide and 100 ng/ml Labetalol as internal standards. • 5. Experimental procedures • 5.1 10 μL of the working solution of sample or control was added per well to all plates (T0, T5, T10, T20, T30, T60, NCF60), except for the blank group; • 5.2 80 μL of the working solution of microsome was added per well to all plates, followed by incubation for 10 min at 37° C.; • 5.3 10 μL of a 100 mM potassium phosphate buffer was added per well to NCF60, followed by incubation at 37° C. and starting timer 1;
• 5.4 After preheating, 10 μL of NADPH was added per well to each plate, and reaction was started;
Final concentration of each component in the incubation medium:
• 5.6 300 μL of the stop solution was added per well to stop the reaction; • 5.7 The system was shaken for about 10 min; • 5.8 The samples were centrifuged (4000 rpm) at 4° C. for 20 min; • 5.9 To 8 new 96-well plates, 300 μL of HPLC water was added per well, then 100 μL of the supernatant was added, mixed and subjected to LC/MS/MS.
In the above table, HLM 0.5 T1/2 (min) refers to half life (min) of compounds in human liver microsome, DLM 0.5 T1/2 (min) refers to half life (min) of compounds in Beagle dog liver microsome.
On the technique in general: Microsomes from liver hold many membrane-bound enzymes, among them those of drug oxidation.

Data set [2] relates to human hepatocytes. In words: Hepatocyte metabolism assay. Format: in vitro ADME. Here is the method:
Experimental procedures: a test sample (concentration: 10 μM) or a positive control (concentration: 30 μM) was co-incubated with hepatic cells of various genera (cell density: 1.0×10^6 cells/mL) for 120 min under the conditions of 37° C./5% CO2/saturated humidity. The sample was centrifuged after protein precipitation by using acetonitrile solution containing 0.1% formic acid according to the proportion of 1:2, the supernatant was blown dry by nitrogen, and then redissolved by using 200 μl of a 10% acetonitrile/water (containing 0.1% formic acid) solution. 15 μL of the obtained solution was introduced each time to an LC-MS instrument system for analysis.

Data set [3] has as its system high-fat-fed obese mice. In words: In vivo efficacy in high-fat-fed obese mice (body weight, liver slice). More on the design: species or system mouse. Conditions: 90 days.
Description: […]

Data set [4] deals with C57BL/6J male mice. In words: Sugar tolerance test of mice (ip-GTT). Format: in vivo, mouse. As to conditions: intragastric 0.2, 2 mg/kg, glucose 1 g/kg i.p. after 2 h.

Entries after “also recorded” stand apart in the source; their conditions may differ. Some results are limits rather than exact numbers.

Turning to `Cc1n(CCCCCCCCCCCC(F)(F)C(F)(F)C(F)(F)C(F)(F)C(F)(F)F)cc[n+]1Cc1c(Cl)cccc1Cl.[Cl-]` [IB-33], the half-life at 1 μM in data set [1] is above 145 min. Besides, in data set [2] (human hepatocyte incubation, 120 min), the “metabolic stability in human hepatocytes (in words)” value was “relatively stable”. Also, the “relative content of original drug remained” value in data set [2] (human hepatocytes, after incubation for 120 min) worked out at 79%. For the same molecule, in data set [2] (incubation of IB-33 10 μM with human hepatocytes, 120 min, parent drug and its possible metabolites), the “Relative abundance (MS peak area %)” value came to 79.31%. In addition, the body weight entry in data set [3] (s.c. 0.05, 0.15, 0.3 mg/kg once every two days) is listed as “significantly reduce the body weight; also recorded: effective in reducing body weight”. Moreover, the “fat accumulation in the liver” value in data set [3] (s.c., HE stained liver slice) is on record as “improve the fat accumulation level in the liver; also recorded: effective in reducing fat accumulation in the liver”. Besides, the “blood sugar in sugar tolerance test (ip-GTT)” value in data set [4] is listed as “significantly lower blood sugar; also recorded: effective in lowering blood sugar”.
